The values that follow come from publication PMC5895880 (Frontiers in Pharmacology, 2018).

Assay [1] concerns the target T1, mGluR5 (Rattus norvegicus, UniProt P31424). The experiment in a line: pCREB (Ser133) levels in primary cultures of rat cortical neurons. It counts as cell-based. The conditions noted are these: rat cerebral cortex neurons. Here is the method: The experiments have been performed on primary cultures of rat cortical neurons. These cells express mGlu5Rs ([Koga et al., 2010]).
Primary cultures of cerebral cortical neurons were prepared from 1-day-old rats. Cortices free of meninges were dissociated in 0.025% (w/v) trypsin at 37°C followed by mechanical repeated gentle pipetting through wide- and narrow-bore fire-polished Pasteur pipettes in culture medium [Neurobasal medium (Gibco, Grand Island, NY, United States) supplemented with 0.1 mM glutamine (Sigma-Aldrich, Milan, Italy), 10 μg/ml gentamicin (Sigma-Aldrich, Milan, Italy) and 2% B-27® Supplement (50X), serum free (Gibco, Grand Island, NY, United States)]. Cells were counted and then plated on poly-L-lysine (5 μg/ml)-coated multiwells. Cytosine arabinoside (10 μM; Sigma-Aldrich, Milan, Italy) was added within 24 h of plating to prevent glial cell proliferation. After 8 days of in vitro incubation (days in vitro: DIV), cultures were used for experiments.
pCREB measurement was performed with the pCREB (Ser133) Assay kit (PerkinElmer Italy, Milan). Briefly, cortical neurons were seeded in 96 well tissue culture plates at a density of 4,000 cells/well and incubated at 37°C overnight. […] The lysates were transferred to a 96-well ½AreaPlate^TM for the assay. The Acceptor Mix was added for 1 h at room temperature and the Donor mix was added to wells under subdue light and incubate for 1 h at room temperature. At the end of this period, raw “AlphaScreen Signal counts” were measured by an Alpha Technology®-compatible plate reader, using standard AlphaLISA settings (excitation 680 nm, emission 615 nm).
(§1) EC50 values were calculated using non-linear regression [curve fit, log(agonist) vs. response, variable slope, four parameters]. Statistical analysis (F-test) has been performed by using GraphPad Prism 6.0 (GraphPad Software Inc., San Diego, CA, United States). Statistical differences between group means for EC50 values were also assessed by ANOVA followed by Tukey’s multiple comparisons test. Data are reported as mean ± SEM of three independent experiments. A p-value < 0.05 was considered statistically significant.

Assay [2] concerns the target T1, mGluR5. Kind of assay: Calcium mobilization (intracellular calcium levels) in primary cultures of rat cortical astrocytes. It counts as cell-based. Conditions: GET73 0 (absence). As for the experimental part: The experiments have been performed on primary cultures of rat cortical astrocytes. These cells express mGlu5Rs ([Zhang et al., 2005]).
Primary cultures of cerebral cortical astrocytes were obtained from newborn rats (1 or 2 days old). Briefly, cerebral cortices were removed and dissociated by mild trypsinization at 37°C, followed by mechanical trituration to obtain single cells. Cells were suspended in the culture medium [Gibco® DMEM, 5% inactivated fetal bovine serum (Thermo-Fisher Scientific, Waltham, MA, United States), 100 IU/ml penicillin, and 100 μg/ml streptomycin (all from Sigma-Aldrich, Milan, Italy)] and then seeded in 75-cm^2 flasks at a density of 3 × 10^6 cells/flask. The cells were incubated at 37°C in a humidified atmosphere, 5% CO2/95% air. The culture medium was replaced after 24 h and again twice weekly until astrocytes were grown to form a monolayer firmly attached to the bottom of the flask (12 or 14 days after dissection). At cell confluence, flasks were vigorously shaken to separate astrocytes (which remained adherent in the bottom of the flasks) from microglia and oligodendrocytes (which floated on the supernatant) ([Tomasini et al., 2015]). Collected astrocytes were counted and then plated in poly-L-lysine at a density of 50,000 cells/well or 96-well plates black, clear bottom plates (Corning®; Sigma-Aldrich, Milan, Italy).
Subsequently 100 μl/well of the same buffer were added for 10 min. […] After placing cell culture and compound plates into the FlexStation II (Molecular Devices, Sunnyvale, CA, United States), the on-line additions were carried out in a volume of 50 μl /well and fluorescence changes were continuously measured for 2 min at 37°C.
as §1
Background: Calcium flux is commonly read through the fluorescence of an indicator in the cells.

For assay [3], the target named is T1, mGluR5. Kind of assay: Inositol phosphate (phosphatidylinositol) turnover in rat hippocampus slices. It counts as cell-based. Conditions: for EC50: rat hippocampus slices, read-out: EC50 of L-quisqualate, phosphatidylinositol turnover. Here is the method:
The experiments have been performed on rat hippocampus slices. This preparation expresses mGlu5Rs ([Zhang et al., 2005]; [Purgert et al., 2014]).
On the day of the experiment, the animals were euthanized, their brain promptly isolated and 400 μm thick slices (15–20 mg each) were obtained from both the left and right hippocampi, by using a McIlwain tissue Chopper fresh tissue. The tissue was then allowed to equilibrate for 20 min at room temperature in Krebs’ solution (composition in mM: NaCl 118; KC1 4.4; CaC1_2 1.2; MgS0_4 1.2; KH2P0_4 1.2; NaHC0_3 25; glucose 10) and gassed with a mixture of 95% O2 plus 5% CO2 ([Ferraro et al., 2011]).
Slices were placed in test tubes containing 0.3 ml of oxygenated Krebs solution with myo-[^3H]inositol 0.3 μM (NEN, Boston, MA, United States). […] The reaction was stopped by washing each slice in ice cold Krebs solution containing LiCl 10 mM and by plunging it in 0.94 ml of chloroform-methanol (1:2 v/v). After 10 min, 310 μl of chloroform and 310 μl of water were added and the tubes were shaken for 20 min. The separation of [^3H]inositol phosphates was performed by ion-exchange chromatography on AG 1-X8 resin, 200–400 mesh (Bio-Rad, Hercules, CA, United States), using different elution solutions. The collected IP3-containing fraction was mixed with Safety-Solve cocktail (RPI, Mount Prospect, IL, United States) and the radioactivity was measured by scintillation counting.
as §1

Assay [4] has as its system mGluR5. More on the design: method as in Nickols et al., 2016. The conditions noted are these: ref Nickols et al., 2016; cited from earlier work.
The test system of assay [5] is mGluR5. More on the design: method as in Nickols et al., 2016. The conditions noted are these: ref Nickols et al., 2016; cited from earlier work. This is another data set of the same source.
Assay [6] addresses T1, mGluR5. More on the design: method as in Bradley et al., 2011. The conditions noted are these: ref Bradley et al., 2011; cited from earlier work.
The target in assay [7] is T1, mGluR5. The arrangement: method as in Bradley et al., 2011. The conditions noted are these: ref Bradley et al., 2011; cited from earlier work. The source holds these as a separate data set.

T1 sequence (P31424 21-875 limits assumed): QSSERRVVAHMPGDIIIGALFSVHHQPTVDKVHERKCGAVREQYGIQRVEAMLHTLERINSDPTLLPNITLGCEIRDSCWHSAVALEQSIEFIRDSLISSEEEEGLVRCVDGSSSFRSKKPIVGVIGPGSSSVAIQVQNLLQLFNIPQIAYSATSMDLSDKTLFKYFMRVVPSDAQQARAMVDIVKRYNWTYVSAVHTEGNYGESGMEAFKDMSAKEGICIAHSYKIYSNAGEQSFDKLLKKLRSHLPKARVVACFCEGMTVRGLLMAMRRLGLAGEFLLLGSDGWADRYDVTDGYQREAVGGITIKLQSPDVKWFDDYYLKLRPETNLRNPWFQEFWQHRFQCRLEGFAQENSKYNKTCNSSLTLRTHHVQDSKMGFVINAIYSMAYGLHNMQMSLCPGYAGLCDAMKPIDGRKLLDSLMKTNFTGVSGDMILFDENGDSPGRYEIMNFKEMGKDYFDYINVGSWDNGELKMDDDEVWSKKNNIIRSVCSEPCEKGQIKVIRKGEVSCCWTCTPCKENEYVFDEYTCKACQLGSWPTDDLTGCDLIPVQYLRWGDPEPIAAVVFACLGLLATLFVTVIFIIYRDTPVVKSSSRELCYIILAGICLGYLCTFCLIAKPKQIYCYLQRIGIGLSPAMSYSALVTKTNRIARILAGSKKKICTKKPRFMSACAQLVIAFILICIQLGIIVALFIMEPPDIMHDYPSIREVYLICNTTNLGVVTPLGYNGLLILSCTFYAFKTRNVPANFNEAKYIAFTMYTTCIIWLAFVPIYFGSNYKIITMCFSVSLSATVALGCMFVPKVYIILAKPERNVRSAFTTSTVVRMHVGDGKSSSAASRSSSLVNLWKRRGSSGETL

Broadly, the EC50 is the concentration that produces a half-maximal response. `NC(C(=O)O)c1cc(O)ccc1Cl` (racemic) [CHPG, (RS)-2-Chloro-5-hydroxyphenylglycine]: the EC50 in assay [1] (GET73 0 (absence), read-out: EC50 of CHPG, pCREB levels) stood at 1000 ± 90 µM; in assay [1] (in the presence of GET73 0.1 nM, read-out: EC50 of CHPG, pCREB levels) it was 1000 ± 80 µM; in assay [1] (in the presence of GET73 1 nM, read-out: EC50 of CHPG, pCREB levels), 900 ± 40 µM; in assay [1] (in the presence of GET73 10 nM, read-out: EC50 of CHPG, pCREB levels) it was 1400 ± 120 µM; in assay [1] (in the presence of GET73 100 nM, read-out: EC50 of CHPG, pCREB levels) it was 5000 ± 290 µM; in assay [2] (read-out: EC50 of CHPG, intracellular calcium levels) it was 1300 ± 90 µM. The Phosphatidylinositol turnover in assay [3] (CHPG at the higher concentration tested (10 mM), rat hippocampal slices, p < 0.05) was 127 ± 4 % of basal levels.

Consider `N[C@@H](Cn1oc(=O)[nH]c1=O)C(=O)O` [L-quisqualate, (L)-(+)-α-Amino-3,5-dioxo-1,2,4-oxadiazolidine-2-propanoic acid], for which the 50% effective concentration (EC50) in assay [1] (GET73 0 (absence), read-out: EC50 of L-quisqualate, pCREB levels) was determined as 0.0088 ± 0.00068 µM; in assay [1] (in the presence of GET73 0.1 nM, read-out: EC50 of L-quisqualate, pCREB levels), 0.009 ± 0.00091 µM; in assay [1] (in the presence of GET73 1 nM, read-out: EC50 of L-quisqualate, pCREB levels) it was 0.0074 ± 0.00066 µM; in assay [1] (in the presence of GET73 10 nM, read-out: EC50 of L-quisqualate, pCREB levels), 0.0085 ± 0.00052 µM; in assay [1] (in the presence of GET73 100 nM, read-out: EC50 of L-quisqualate, pCREB levels) it was 0.011 ± 0.00096 µM; in assay [1] (in the presence of GET73 1 μM, read-out: EC50 of L-quisqualate, pCREB levels), 0.022 ± 0.00172 µM. The EC50 was 0.016 ± 0.00044 µM in assay [1] (in the presence of GET73 10 μM, read-out: EC50 of L-quisqualate, pCREB levels); 0.0031 ± 0.00036 µM in assay [2] (read-out: EC50 of L-quisqualate, intracellular calcium levels); 40 ± 2.37 µM in assay [3] (GET73 0 (absence)); 33 ± 1.57 µM in assay [3] (in the presence of GET73 0.1 nM); 40 ± 1.44 µM in assay [3] (in the presence of GET73 1 nM); 110 ± 9.5 µM in assay [3] (in the presence of GET73 10 nM). Moreover, the figures for the EC50 in assay [3] (in the presence of GET73 100 nM), in assay [3] (in the presence of GET73 1 μM) and in assay [3] (in the presence of GET73 10 μM) were 200 ± 11.1 µM, 320 ± 15.7 µM and 200 ± 12.6 µM, respectively.

Turning to `CCN(CC)C(=O)c1ccc(C#Cc2cccc(F)c2)cn1` [VU0477573], the “Inhibition of agonist-mediated intracellular Ca++ release” value in assay [4] is listed as “only partially inhibited”. The “Inhibition of ERK1/2 phosphorylation” value in assay [5] is “fully inhibited”.

As for `COc1cccc(C#Cc2ccc(C)cn2)c1` [M-5MPEP], the “Inhibition of agonist-stimulated Ca++ oscillations” value in assay [6] was “completely blocking”. Besides, the “Inhibition of agonist-stimulated [3H]IP accumulation” value in assay [7] is “partially inhibiting”.
